# Tests used:
# MERTK = target: T1, MERTK (Homo sapiens, UniProt Q12866); assay: TR-FRET kinase activity assay, MERTK; type: biochemical; settings: for IC50: TR-FRET activity assay, ATP at Km, 60 minutes, read-out: Mer IC50; for FLT3/Mer ratio (FLT3 IC50/Mer IC50): ratio of Mer to FLT3: FLT3 IC50/Mer IC50
# T1 sequence (Q12866 21-999): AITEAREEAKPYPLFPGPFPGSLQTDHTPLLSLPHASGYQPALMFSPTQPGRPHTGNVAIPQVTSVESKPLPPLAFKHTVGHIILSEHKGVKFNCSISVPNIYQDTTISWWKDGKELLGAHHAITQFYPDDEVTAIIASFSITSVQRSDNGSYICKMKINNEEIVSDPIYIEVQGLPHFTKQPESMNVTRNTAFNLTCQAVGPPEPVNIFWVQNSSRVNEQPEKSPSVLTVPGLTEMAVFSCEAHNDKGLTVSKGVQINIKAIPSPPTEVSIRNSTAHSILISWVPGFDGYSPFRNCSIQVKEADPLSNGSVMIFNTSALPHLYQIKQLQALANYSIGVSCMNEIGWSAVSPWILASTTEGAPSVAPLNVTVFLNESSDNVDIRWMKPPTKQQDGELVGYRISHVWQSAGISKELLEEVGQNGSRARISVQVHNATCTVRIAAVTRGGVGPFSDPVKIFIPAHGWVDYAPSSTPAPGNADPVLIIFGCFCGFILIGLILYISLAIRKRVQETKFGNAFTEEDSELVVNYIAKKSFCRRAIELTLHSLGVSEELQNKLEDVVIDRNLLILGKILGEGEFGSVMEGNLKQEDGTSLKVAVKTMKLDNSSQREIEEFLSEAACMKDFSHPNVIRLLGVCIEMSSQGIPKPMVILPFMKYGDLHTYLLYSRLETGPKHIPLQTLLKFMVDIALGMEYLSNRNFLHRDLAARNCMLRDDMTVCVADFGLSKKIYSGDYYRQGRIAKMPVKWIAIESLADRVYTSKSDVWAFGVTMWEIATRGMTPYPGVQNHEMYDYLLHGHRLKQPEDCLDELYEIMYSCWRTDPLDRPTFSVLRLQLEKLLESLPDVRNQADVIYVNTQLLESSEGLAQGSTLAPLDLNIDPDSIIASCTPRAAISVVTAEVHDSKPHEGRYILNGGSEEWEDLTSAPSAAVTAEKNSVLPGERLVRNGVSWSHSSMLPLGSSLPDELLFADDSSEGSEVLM
# In short: (§1)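 Each kinase phosphorylated a fluorescent-labelled tyrosine peptide in 50 mM HEPES pH 7.5, 10 mM MgCl2, 1 mM EGTA, 0.01% Brij 35, 1 mM DTT at RT, with ATP at Km for that enzyme. After 60 min, EDTA quench and Eu-anti-phosphotyrosine antibody (30 min, dark); IC50 from TR-FRET decrease.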
# AXL = target: T2, AXL (Homo sapiens, UniProt P30530); assay: TR-FRET kinase activity assay, AXL; type: biochemical; settings: ATP at Km, 60 minutes
# T2 sequence (P30530 26-894): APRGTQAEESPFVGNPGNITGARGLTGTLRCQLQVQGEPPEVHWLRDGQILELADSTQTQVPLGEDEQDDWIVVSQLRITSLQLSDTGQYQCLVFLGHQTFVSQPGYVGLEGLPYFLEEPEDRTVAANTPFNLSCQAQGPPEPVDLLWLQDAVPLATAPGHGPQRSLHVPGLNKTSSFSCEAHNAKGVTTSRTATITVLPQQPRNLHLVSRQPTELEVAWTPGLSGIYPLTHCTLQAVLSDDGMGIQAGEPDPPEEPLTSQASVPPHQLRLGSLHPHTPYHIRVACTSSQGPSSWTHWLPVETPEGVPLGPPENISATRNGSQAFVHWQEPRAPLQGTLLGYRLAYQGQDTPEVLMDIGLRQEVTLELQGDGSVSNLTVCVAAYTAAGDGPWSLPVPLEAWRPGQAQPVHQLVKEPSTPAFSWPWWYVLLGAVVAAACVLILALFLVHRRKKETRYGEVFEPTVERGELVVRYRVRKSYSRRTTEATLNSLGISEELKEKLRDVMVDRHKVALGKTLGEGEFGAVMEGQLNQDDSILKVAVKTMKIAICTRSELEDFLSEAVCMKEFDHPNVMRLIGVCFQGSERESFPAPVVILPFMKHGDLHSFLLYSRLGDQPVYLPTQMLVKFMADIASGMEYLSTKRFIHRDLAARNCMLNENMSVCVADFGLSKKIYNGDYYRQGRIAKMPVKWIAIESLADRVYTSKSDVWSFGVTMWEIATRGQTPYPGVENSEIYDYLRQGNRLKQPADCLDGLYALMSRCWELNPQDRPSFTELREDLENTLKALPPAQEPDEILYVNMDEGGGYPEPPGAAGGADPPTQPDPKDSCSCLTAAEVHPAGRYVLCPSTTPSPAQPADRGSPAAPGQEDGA
# In short: as §1
IC50 (MERTK) [nM],FLT3/Mer ratio (FLT3 IC50/Mer IC50) (MERTK),IC50 (AXL) [nM],SMILES
≤ 100,+++ (“+++” represents a ratio of >100),≤ 100,COC[C@H](C)Nc1ncc2c(-c3ccnc(N4CCNC(=O)C4)c3)cc([C@H]3CC[C@H](O)CC3)n2n1 [Compound 340]
≤ 100,+++ (“+++” represents a ratio of >100),100 to 1000,COC[C@H](C)Nc1ncc2c(-c3cnn(C(C)(C)C(=O)O)c3)cc([C@H]3CC[C@H](O)CC3)n2n1 [Compound 284]
